From a melting point compilation (Tetko et al.; mined from patent text by program, amines drawn as free bases though some values may be those of a salt)

| SMILES | melting point |
| --- | --- |
| COc1cc(COc2cc(Cn3cncn3)n(-c3ccccc3)n2)ccc1OCc1nc(-c2ccco2)oc1C | 95 to 96 °C |
| CC(=O)Nc1c(Cl)cc(CC(=O)O)cc1Cl | 209 to 211 °C |
| Cc1ccc(-n2nc3c4cc(Cc5ccccc5)ccc4[nH]c(=O)n3c2=O)cc1 | 299 °C |
| CC1CN(C)CC=C1C(=O)N1c2ccccc2NC(=O)c2ccccc21 (stereo not drawn) | 223 to 224 °C |
| O=C(O)c1cc(Cl)cc2ccoc12 | 212 to 215 °C |
| CSCCc1nc(N2CCc3ccccc3CC2)c(C#N)c(=O)n1CCO | 93 to 99 °C |
| Cc1nc2c(S(=O)(=O)Cl)cccc2s1 | 100 to 102 °C |
| CN(C)C=C1CCc2cnccc2C1=O | 76 to 79 °C |
| Cn1cccc1C(=NOCc1cccs1)C(=O)O | 70 to 71 °C |
| Nc1c(-c2ccc(-c3ccc(F)cc3)cc2)nc2ccc(F)cc2c1C(=O)O | 241 to 243 °C |
| CNC(=O)Oc1ccc2onc(NCCN3CCOCC3)c2c1 | 135 to 136 °C |
| Clc1ccc(Nc2nc3ccccc3c3[nH]c(C4CCCC4)nc23)cc1Cl | 114 to 115 °C |
| CCOc1nc(NCCN2CCCC2)nc(Nc2ccc(F)c(Cl)c2)n1 | 111 to 113 °C |
| CNC(=O)c1ccccc1Nc1nc(Nc2ccc3c(c2)CCN(C[C@@H](O)C(F)(F)F)CC3)ncc1Cl | 188 to 191 °C |
| COc1cc(C=Cc2nc3c([nH]2)c(=O)n(C)c(=O)n3C)cc(OC)c1 | > 320 °C |
| Cn1nc(-c2ccc(Br)cc2)c2ccccc2c1=O | 168 to 170 °C |
| Cc1cccc(CCC(O)c2ccccc2)c1NC(=O)CC1c2ccccc2Oc2ccccc21 (stereo not drawn) | 193 to 194 °C |
| C=C(C)OC(=O)N1c2nc(C)ccc2NC(=S)C1C (racemic) | 120 to 121 °C |
| O=S(=O)(CC=C(c1ccccc1)c1ccccc1)c1ccccc1 | 106 °C |
| COc1ccc(C2=C(c3ccc(O)cc3)CCCc3cc(OCc4ccccc4)ccc32)cc1 | 173 to 175 °C |
| O=C(c1cnccn1)N1CCN(Cc2ccc3c(c2)-c2[nH]nc(-c4ccsc4)c2C3)CC1 | 254 to 259 °C |

| SMILES | melting point |
| --- | --- |
| CC1(CCCN2CC[C@H](CNC(=O)c3cc(Cl)c(N)c4c3OCC4)[C@H](O)C2)OCCO1 (relative stereo) | 118 °C |
| CC(C)N(C)c1cccc([N+](=O)[O-])c1C#N | 70 to 72 °C |
| Cc1c(NC(=O)c2c(C(=O)N3CCC3)cnn2C)ccn2nc(-c3ccccc3)nc12 | 243 to 245 °C |
| COC(=O)C(Cl)=Cc1cccc([N+](=O)[O-])c1Cl | 110 to 112 °C |
| COC(=O)c1c(Sc2ccc(OC)cc2)nc(-c2ccccc2)n1Cc1cc2c(cc1Cl)OCO2 | 161 °C |
| O[C@@H](CNCCOc1ccc2oc(-c3ccon3)cc2c1)COc1ccccc1C(F)(F)F | 90 to 91 °C |
| CNCCCn1cc2c(C3C(=O)Nc4ccc(Br)cc43)ncnc2n1 (stereo not drawn) | 240 to 243 °C |
| CCOCc1nc2c(N)nc(C)c(C)c2n1NC1CCOCC1 | 120 to 122 °C |
| O=c1[nH]c2ccc(C3=NOC(CCN4CCC(Cc5ccc(F)cc5)CC4)C3)cc2o1 (stereo not drawn) | 254 to 258 °C |
| CCOC(=O)CCc1cn(-c2ccccc2)nc1O | 116 to 118 °C |
| O=C(Nc1nc2ccccc2[nH]1)c1ccc(Cl)c(Cl)c1 | 251 to 252 °C |
| Nc1ncc(-c2ccc(F)cc2F)nc1C(=O)Nc1cccnc1 | 232 to 234 °C |
| CCC(=O)OCC1OC(n2c(Cl)c(C=O)c3cc(Cl)c(Cl)cc32)C(O)C1O (stereo not drawn) | 139 to 140 °C |
| CS(=O)C=C1C(C)(C)CCC1(C)C (stereo not drawn) | 74.7 °C |
| CC(=O)c1c(O)cc(C)cc1O | 146 to 148 °C |
| CC(C)c1nc(C2CCCCC2)cc(-c2ccc(F)cc2)c1CO | 101 to 104 °C |
| O=C1OCC(c2ccc(Cl)cc2)C1CSCc1ccccc1 (stereo not drawn) | 66 to 69 °C |
| N#CCNC(=O)C(=O)Oc1ccc([N+](=O)[O-])cc1 | 123 to 124 °C |
| O=C(O)c1cnc(Nc2cc3c4c(c2)CCCC4CCC3)nc1 | 296 to 298 °C |
| CCc1c(C)sc2nc(C(C)C)c(CO)c(-c3ccc(F)cc3)c12 | 188 to 191 °C |
| COc1ccc2c(c1)COCc1cc(OC)c(OC)c(OC)c1-2 | 151 to 153 °C |

| SMILES | melting point |
| --- | --- |
| CC(=O)N(C)N(C)c1ccc(CCn2cnc3cc(-c4ccc(Cl)cc4)sc3c2=O)cc1 | 227 to 228 °C |
| COc1cc(N2CCCN(C3CCN(CCO)CC3)CC2)ccc1Nc1ncc2ccc(-c3ccccc3OC)n2n1 | 77 to 94 °C |
| Cc1cccc2c1C(=O)N(CO)S2(=O)=O | 196 to 198 °C |
| O=C1C(c2ccccc2)CC=C2c3ccsc3CCN12 (stereo not drawn) | 159 to 161 °C |
| Clc1cccc(Cn2cnc3c(-c4ccco4)nc(Cl)nc32)c1 | 196 to 198 °C |
| CC(C)Cn1c(C(=O)O)c(-c2cccs2)c2cc(OCc3ccccc3)ccc2c1=O | 171 to 172 °C |
| O=C1NC(=O)C(Nc2ccc(Br)c3ccccc23)S1 (stereo not drawn) | 199 to 200 °C |
| CC(=O)NC(C)(C)c1ccc(C(C)N2CCN(c3ccc(F)cc3)CC2)cc1 (stereo not drawn) | 156 to 157 °C |
| CC(C)c1cc2c(-c3nc4cnccc4[nH]3)ccc(OC(F)F)c2o1 | 201 °C |
| CC(C)(C)c1ccccc1N1CCN(C(=O)Cc2nnn[nH]2)CC1 | 236 to 237 °C |
| Cc1ccc(N2N=C3c4cc(C(C)O)sc4CCC3CC2=O)cc1 (stereo not drawn) | 129 to 145 °C |
| O=C(NCCO)NC1CCCc2ccccc21 (stereo not drawn) | 146 to 149 °C |
| O=C1C[C@H](O)C[C@@H](/C=C/c2cnc3ccccc3c2-c2cccs2)O1 | 102 to 104 °C |
| OCC1OC(n2cnc3c(NCCC(c4ccccc4)c4ccccc4)ncnc32)C(O)C1O (stereo not drawn) | 103 to 118 °C |
| O=[N+]([O-])C=C1NCCN1C/C=C\Cl | 117 to 118 °C |
| NS(=O)(=O)c1ccc(NC(=O)c2ccccc2SSc2ccccc2C(=O)O)cc1 | 276 to 278 °C |
| Nc1nc2ccccc2c2sc(CCc3ccccc3)nc12 | 158 to 159 °C |
| Cc1cc(-c2cc(Cl)ccc2Cl)n2ncc(C#N)c2n1 | 229 to 230 °C |
| CC1(C)CC(=C(c2ccc(O)cc2)c2ccc(-c3ccc(CO)cc3)cc2)CC(C)(C)C1 | 222 to 223 °C |
| CCOC(=O)c1cc(C#Cc2ccccn2)c2ccccc2n1 | 129 to 131 °C |
| COc1cc(C(O)(C(F)(F)F)C(F)(F)F)cc(C)c1OCC(=O)O | 111 to 113 °C |

Now from value to compound:

| melting point | SMILES |
| --- | --- |
| 201 to 202 °C | CC(C)(O)c1nc(CO)n(Cc2ccc(-c3ccccc3-c3nnn[nH]3)cc2)c1C(=O)O |
| 224 to 226 °C | COC(=O)CCC(=O)Nc1cccc2c1C(=O)N(C1CCC(=O)NC1=O)C2=O (stereo not drawn) |
| 134 to 137 °C | CCc1ccc(Cc2cc(C(=O)OC)ccc2O)cc1 |
| 156 to 158 °C | CN(c1cccc(C(F)(F)F)c1)c1nc2c(-c3cccc(C(=O)NCCO)c3)cccc2n1C |
| 49 to 50 °C | CCCc1ccccc1OCCCCCOc1coc(C(=O)OC)cc1=O |
| 182 °C | C#Cc1ccc(NC(=O)N[C@H](CCC)C(=O)Nc2ccc(N3CCOCC3=O)cc2)cc1 |
| 66 to 68 °C | CCCc1c(OCCCSc2ccc(C(=O)OC)cn2)ccc(C(C)=O)c1O |
| 147 to 150 °C | O=C(O)Cc1cc(C(=O)c2ccc(Br)cc2)sc1-c1ccccc1 |
| 120 to 121 °C | CCCOC(Nc1ccccc1)(OCCC)c1ccnc(C(=O)c2ccc(C)cc2)c1 |
| 218 to 219 °C | CCOc1ccc(NN=C2CCC(C)n3c2ncc(C(=O)O)c3=O)cc1 (stereo not drawn) |
| 170 to 171 °C | COC(=O)C(C)(C)Cc1c(SC(C)(C)C)c2cc(O)ccc2n1Cc1ccc(Cl)cc1 |
| 173 to 175 °C | COCc1c(C(=O)OC(C)(C)C)ncc2[nH]c3ccc(Oc4ccc(Br)cn4)cc3c12 |
| 129 to 130 °C | CC(C)c1cc(Oc2ccc(Cl)cc2C(=O)O)cc(C(C)C)c1 |
| 210 to 211 °C | COc1cc(-c2cnc3[nH]cc(C(=O)CC(C)C)c3n2)cc(OC)c1OC |
| 118 to 120 °C | O=C(NCCCO)c1ccc(O)cc1 |
| 110 to 116 °C | COc1ccc(-c2nc(CNC(=O)CCC(=O)O)sc2-c2ccc(OC)cc2)cc1 |
| 143 to 145 °C | CSc1ccc(C(=N)Nc2ccc(C)cc2)cc1 |
| 62 °C | COC(=O)C(C)c1ccc(C(=O)c2cccs2)cc1 (stereo not drawn) |

| melting point | SMILES |
| --- | --- |
| 186 to 187 °C | C[C@@H](NC(=O)[C@H](Cc1ccc(OC(C)(C)C)cc1)NC(=O)OC(C)(C)C)C(=O)O |
| 129 to 131 °C | CCCNC(=O)c1nc(C)ccc1C(=O)Nc1c(Cl)ccc(C)c1C#N |
| 242 °C | CNCCCOc1ccc(-c2ccc(C(=O)O)cc2)cc1-c1ccc2c(c1)C(C)(C)CCC2(C)C |
| 131 to 134 °C | COc1cc2c(c3c1OC(C)(C)C3)C(c1cccc(N)c1)=NC(C)(C)C2 |
| 129 to 131 °C | CC(C)(C)OC(=O)NCc1ccc(-n2c(-c3cccnc3N)nc3cc(Br)cnc32)cc1 |
| 195 to 196 °C | CC(=O)c1ccc(Nc2cccc(-c3ccccn3)c2)c([N+](=O)[O-])c1 |
| 148 to 150 °C | CON=C(C)CC(C)(C)Cn1cnc2c(N)nc3ccccc3c21 |
| 82 to 83 °C | CCCc1nn(-c2ccc(C(F)(F)F)cn2)cc1CCCOc1cccc(C(C)(C)C(=O)O)c1 |
| 163 to 165 °C | COC(=O)C(CCSC)N(C(=O)OC(C)(C)C)C(=O)c1ccc(N)c(C)c1 (stereo not drawn) |
| 216 to 217 °C | O=C(CCl)Nc1ccc2c(c1NC(=O)C1CCCCC1)C(=O)c1ccccc1C2=O |
| 138 to 140 °C | CC(C)(C)c1cc(CC2=NC(=S)SC2)cc(C(C)(C)C)c1O |
| 100 to 103 °C | CCC(=O)CNC(=O)c1cc(OC)cc(Oc2cccc(C(F)(F)F)c2)n1 |
| 161 to 164 °C | CCC(CC)Nc1cc(C)nc(Oc2c(C)cc(Cl)cc2C)c1NC(C)=O |
| 175 to 177 °C | CCC(CC)N(O)C(=O)Nc1ccc(C)c(NC(=O)N(O)C(CC)CC)c1 |
| 193 to 194 °C | CCCC(=O)c1ccc(C(CCC)CC(=O)Nc2cc(C(N)=O)ccc2C(C)(C)C)c(OC)c1 (stereo not drawn) |
| 145 to 152 °C | CCCN(CCCc1c[nH]c2ccc(OC)cc12)C1COc2c(F)ccc(C(N)=O)c2C1 (stereo not drawn) |
| 130 to 132 °C | CCOC(=O)c1c(C)nc(-c2ccccc2)nc1-c1cc([N+](=O)[O-])ccc1S(C)=O (stereo not drawn) |
